Biological target: T1, TG2 in tissue sections (Mus musculus, UniProt P21981)
T1 construct: from tissue; host or cells: mouse small intestine cryosections (mucosa)
T1 sequence (P21981 1-686): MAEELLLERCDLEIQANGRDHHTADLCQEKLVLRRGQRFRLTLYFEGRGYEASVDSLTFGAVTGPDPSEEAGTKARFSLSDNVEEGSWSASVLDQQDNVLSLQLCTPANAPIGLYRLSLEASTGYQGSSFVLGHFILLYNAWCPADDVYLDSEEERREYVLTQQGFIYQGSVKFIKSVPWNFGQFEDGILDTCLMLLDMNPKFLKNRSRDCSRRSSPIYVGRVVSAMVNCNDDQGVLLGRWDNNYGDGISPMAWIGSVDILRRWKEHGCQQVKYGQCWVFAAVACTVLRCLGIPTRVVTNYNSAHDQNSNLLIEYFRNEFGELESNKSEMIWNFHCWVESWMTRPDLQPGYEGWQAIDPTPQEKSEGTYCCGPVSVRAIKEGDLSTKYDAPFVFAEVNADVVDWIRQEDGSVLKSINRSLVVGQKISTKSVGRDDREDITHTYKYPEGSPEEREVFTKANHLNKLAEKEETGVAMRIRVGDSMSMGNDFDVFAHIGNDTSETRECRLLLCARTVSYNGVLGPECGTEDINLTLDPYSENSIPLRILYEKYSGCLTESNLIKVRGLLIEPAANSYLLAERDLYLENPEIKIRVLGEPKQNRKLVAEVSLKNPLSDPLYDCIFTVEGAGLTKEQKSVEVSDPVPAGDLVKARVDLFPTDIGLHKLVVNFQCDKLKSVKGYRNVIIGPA
Test: Ex vivo testing of inhibitors on small intestine sections of a control mouse
Conditions: pre-incubated with 0.2 mg/ml and 0.02 mg/ml inhibitor
Protocol: After a washing step (1% BSA in PBS buffer), incubation was carried out with 4 μg/ml of the TG2 substrate biotinyl-TVQQEL (Zedira, product number B001) in the presence of 5 mM CaCl2 for 2 h at room temperature. The reaction was stopped with 25 mM EDTA. After one further washing, blocking, and washing step, the primary antibody against human TG2 was added (Zedira, product number A018, 25 μg/ml) and incubated for one hour at room temperature. After four wash steps, streptavidin-FITC (2 μg/ml, streptavidin-fluorescein-isothiocyanate) and Cy3-labeled goat anti-rabbit IgG antibodies (22.5 μg/ml) were added and incubated in the dark at room temperature for 40 min. TG2 was thus visible in the fluorescence microscope as red color (Cy3), whereas biotinyl-TVQQEL incorporated by transglutaminase activity was visualized by green staining (FITC). The superposition of both images led to a yellow color when active transglutaminase was present.
[…] Then the staining protocol as described in example 10 was carried out. In the control sections with 0.0 mg/ml inhibitor yellow staining in the mucosa of the small intestinal was detected, which is due to active TG2.

Row | TG2 inhibition in sections at the higher concentrations of inhibitor | Structure (SMILES)
1 | completely inhibited | CC[C@@H](C)[C@H](NC(=O)Cn1cccc(NC(=O)[C@H](CC/C=C/C(=O)OC)NC(=O)c2ccccc2)c1=O)C(=O)O [A61, (2S,3R)-2-(2-(3-((S,E)-2-benzamido-7-methoxy-7-oxohept-5-enamido)-2-oxopyridin-1(2H)-yl)acetamido)-3-methylpentanoic acid]
2 | completely inhibited | CCC(CC)CNC(=O)Cn1cccc(NC(=O)[C@H](CC/C=C/C(=O)OC)NC(=O)c2cncn2C)c1=O [A63, (S,E)-Methyl 7-(1-(2-(2-ethylbutylamino)-2-oxoethyl)-2-oxo-1,2-dihydropyridin-3-ylamino)-6-(1-methyl-1H-imidazole-5-carboxamido)-7-oxohept-2-enoate]
